The source made the active and inactive calls. No cut-off for these calls is given here.
What was measured:
MDA-MB-231 [1] = assay: Antitumor activity against human MDA-MB-231 cells xenografted in female Balb/c mouse assessed as reduction in tumor weight at 5 mg/kg, iv administered via tail vein every 2 days for 16 days relative to control; type: functional; design: scale not given: the % may be the effect or the level left; conditions: time 16 day
[2] = Toxicity in female Balb/c nude mouse xenografted with human MDA-MB-231 cells assessed as change in […] level at 2 to 5 mg/kg, iv administered via tail vein every 2 days for 16 days; type: organism-based; conditions: in vivo, 384 h, dose 2-5 mg/kg, time 16 day
[3] = Toxicity in female Balb/c nude mouse xenografted with human MDA-MB-231 cells assessed as signs of skin tear at 2 to 5 mg/kg, iv administered via tail vein every 2 days for 16 days; type: organism-based; conditions: in vivo, 384 h, dose 2-5 mg/kg, time 16 day
MDA-MB-231 [4] = assay: Antitumor activity against human MDA-MB-231 cells xenografted in iv dosed female Balb/c mouse assessed as nucleolysis in tumor administered via tail vein every 2 days for 16 days by H and E staining based analysis; type: functional, organism-based; conditions: dose 2-5 mg/kg, time 16.0 day
[5] = Cytotoxicity against HUVEC cells assessed as inhibition of cell growth incubated for 48 hrs by MTT assay; type: toxicity, cell-based; conditions: human
[6] = Upregulation of EGF gene expression in human MDA-MB-231 cells assessed as fold change at 1 uM measured after 48 hrs by RNA-seq analysis relative to control; type: functional
[7] = Upregulation of CDKN1A gene expression in human MDA-MB-231 cells assessed as fold change at 1 uM measured after 48 hrs by RNA-seq analysis relative to control; type: functional
MDA-MB-231 [8] = assay: Inhibition of hTERT expression in human MDA-MB-231 cells assessed as reduction in pink foci in nucleus at 0.5 uM incubated for 48 hrs in presence of TBHP at 200 uM by immunofluorescence analysis; type: functional, cell-based
Quadruplex DNA [9] = assay: Binding affinity to CKIT-2 G4 DNA (unknown origin) assessed as dissociation constant by ITC analysis; type: nucleic-acid assay
Quadruplex DNA [10] = assay: Binding affinity to Bcl-2 G4 DNA (unknown origin) assessed as change in gibbs free energy at 400 uM by ITC analysis; type: nucleic-acid assay
MDA-MB-231 [11] = assay: Induction of senescence in human MDA-MB-231 cells at 0 to 1.5 uM measured after 48 hrs by SA-beta-gal assay; type: functional, cell-based; conditions: dose 0-1.5 µM
MDA-MB-231 [12] = assay: Induction of cell cycle arrest in human MDA-MB-231 cells assessed as accumulation of cells at G2/M phase at 0.5 to 1.5 uM measured after 48 hrs by 7-aminoactinomycin D/RNase staining based flow cytometry analysis (reference value: 14.3%); type: functional; conditions: dose 0.5-1.5 µM
DNA [13] = assay: Binding affinity to Ds26 duplex DNA (unknown origin) assessed as change in gibbs free energy at 400 uM by ITC analysis; type: nucleic-acid assay
Quadruplex DNA [14] = assay: Binding affinity to VEGF G4 DNA (unknown origin) assessed as thermal stability by measuring change in melting temperature at 400 uM […]; type: nucleic-acid assay
MDA-MB-231 [15] = assay: Cytotoxicity against telomerase-positive human MDA-MB-231 cells assessed as inhibition of cell growth incubated for 48 hrs by MTT assay; type: functional, cell-based; conditions: MDA-MB-231, 48 h
[16] = Upregulation of HMOX1 gene expression in human MDA-MB-231 cells assessed as fold change at 1 uM measured after 48 hrs by RNA-seq analysis relative to control; type: functional
Quadruplex DNA [17] = assay: Binding affinity to human TERT G4 DNA in Tris-HCl buffer at pH 7.4 assessed as increase in CD signal at 5 to 100 uM by circular dichroism spectrometer; type: nucleic-acid assay; conditions: dose 5-100 µM
[18] = Toxicity in female Balb/c nude mouse xenografted with human MDA-MB-231 cells assessed as change in ALT level at 2 to 5 mg/kg, iv administered via tail vein every 2 days for 16 days; type: organism-based; conditions: in vivo, 384 h, dose 2-5 mg/kg, time 16 day
MDA-MB-231 [19] = assay: Downregulation of ND1 gene expression in human MDA-MB-231 cells at 1 uM measured after 48 hrs by RNA-seq analysis; type: functional, cell-based
[20] = Upregulation of TGFB2 gene expression in human MDA-MB-231 cells assessed as fold change at 1 uM measured after 48 hrs by RNA-seq analysis relative to control; type: functional
MDA-MB-231 [21] = assay: Activation of apoptosis in human MDA-MB-231 cells assessed as downregulation of Bcl-2 protein expression measured after 48 hrs by Western blot analysis; type: functional, cell-based; conditions: dose 0-1.5 µM
[22] = Upregulation of SGK1 gene expression in human MDA-MB-231 cells assessed as fold change at 1 uM measured after 48 hrs by RNA-seq analysis relative to control; type: functional
MDA-MB-231 [23] = assay: Downregulation of DNAPKcs transcription level in human MDA-MB-231 cells at 1 uM measured after 48 hrs by RNA-seq analysis; type: functional, cell-based
[24] = Selectivity ratio of binding affinity to human TERT G4 DNA to binding affinity to Ds26 duplex DNA (unknown origin)
[25] = Toxicity in female Balb/c nude mouse xenografted with human MDA-MB-231 cells assessed as change in creatinine level at 2 to 5 mg/kg, iv administered via tail vein every 2 days for 16 days; type: organism-based; conditions: in vivo, 384 h, dose 2-5 mg/kg, time 16 day
DNA [26] = assay: Binding affinity to Ds26 duplex DNA (unknown origin) assessed as dissociation constant by ITC analysis; type: nucleic-acid assay
MDA-MB-231 [27] = assay: Induction of telomere dysfunction in human MDA-MB-231 cells assessed as telomer length shortening effect at 0.2 uM measured after 10 days by qRT-PCR analysis; type: functional, cell-based; conditions: time 10.0 day
[28] = Upregulation of KLF2 gene expression in human MDA-MB-231 cells assessed as fold change at 1 uM measured after 48 hrs by RNA-seq analysis relative to control; type: functional
[29] = Upregulation of CCNB3 gene expression in human MDA-MB-231 cells assessed as fold change at 1 uM measured after 48 hrs by RNA-seq analysis relative to control; type: functional
[30] = Toxicity in female Balb/c nude mouse xenografted with human MDA-MB-231 cells assessed as signs of discomfort at 2 to 5 mg/kg, iv administered via tail vein every 2 days for 16 days; type: organism-based; conditions: in vivo, 384 h, dose 2-5 mg/kg, time 16 day
[31] = Upregulation of HLA-C gene expression in human MDA-MB-231 cells assessed as fold change at 1 uM measured after 48 hrs by RNA-seq analysis relative to control; type: functional
MDA-MB-231 [32] = assay: Induction of ferroptosis in human MDA-MB-231 cells assessed as disruption of iron metabolism by measuring increase in bright yellow fluorescent spots measured after 48 hrs by FerroOrange/Hoechst 33342 staining based confocal microscopic analysis; type: functional, cell-based; conditions: dose 0-1.5 µM
Quadruplex DNA [33] = assay: Binding affinity to Bcl-2 G4 DNA (unknown origin) assessed as change in enthalpy at 400 uM by ITC analysis; type: nucleic-acid assay
[34] = Upregulation of PCBP3 gene expression in human MDA-MB-231 cells assessed as fold change at 1 uM measured after 48 hrs by RNA-seq analysis relative to control; type: functional
[35] = Upregulation of HLA-F gene expression in human MDA-MB-231 cells assessed as fold change at 1 uM measured after 48 hrs by RNA-seq analysis relative to control; type: functional
DNA [36] = assay: Binding affinity to Ds26 duplex DNA (unknown origin) assessed as thermal stability by measuring change in melting temperature at 400 uM […]; type: nucleic-acid assay

Kd (Quadruplex DNA [9]): 6.8 µM
deltaG (Quadruplex DNA [10]): -7.43 kcal/mol
deltaG (DNA [13]): -6.45 kcal/mol
ΔTm (Quadruplex DNA [14]): 0.72 °C
Activity (Quadruplex DNA [17]): Active
Selectivity ratio [24]: 3
Kd (DNA [26]): 18.9 µM
deltaH (Quadruplex DNA [33]): -2.34 kcal/mol
ΔTm (DNA [36]): 1.01 °C
Structure (SMILES): C[n+]1c(/C=C/c2c[nH]c3ccccc23)cc(/C=C2\Sc3ccccc3N2CCCN2CCC(C(F)(F)F)CC2)c2ccccc21.[I-]
Activity (MDA-MB-231 [1]): 78.7%
Activity [2]: Non-Toxic
Activity [3]: Non-Toxic
Activity (MDA-MB-231 [4]): Dose-Dependent Effect
IC50 at 48 h [5]: 8.7 µM
fold change (FC) [6]: >2
fold change (FC) [7]: >2
inhibition (MDA-MB-231 [8]): Active
Activity (MDA-MB-231 [11]): Active
Activity (MDA-MB-231 [12]): 32%
IC50 (MDA-MB-231 [15]): 1 µM
fold change (FC) [16]: >2
Activity [18]: Non-Toxic
Activity (MDA-MB-231 [19]): Active
fold change (FC) [20]: >2
Activity (MDA-MB-231 [21]): Dose-Dependent Effect
fold change (FC) [22]: >2
Activity (MDA-MB-231 [23]): Active
Activity [25]: Non-Toxic
Activity (MDA-MB-231 [27]): Active
fold change (FC) [28]: >2
fold change (FC) [29]: >2
Activity [30]: Non-Toxic
fold change (FC) [31]: >2
Activity (MDA-MB-231 [32]): Dose-Dependent Effect
fold change (FC) [34]: >2
fold change (FC) [35]: >2
